Laboratory results as given in patent US20240174702A1, “SOLID FORMS OF A COMPOUND FOR […]” (Gilead Sciences, Inc., priority 2022, published 2024).
Each block holds one molecule with its values, some of them ahead of it.

Legend:
[1] = Stability study: loss of purity over time by liquid chromatography; assay type: physicochemical
Procedure: Formula I amorphous material and Forms I, II, III and IV were examined for loss of purity over time as determined by liquid chromatography.
The sample preparations for the stability study are described as follows: • Formula I Amorphous: A sample of amorphous solids was placed at about 22° C. open to air and the purity was monitored over 3 days by liquid chromatography. • Formula I Form I: Samples of Formula I Form I were placed in sealed glass vials and placed in a chamber at about 40° C. and about 75% RH and the purity was periodically monitored by liquid chromatography. • Formula I Form II: Samples of Formula I Form II were placed in an open vial. The vial was placed inside a container alongside a saturated salt solution to provide a humidity of about 88% RH and sealed. The sealed container was then placed into a chamber at about 40° C. and the purity was periodically monitored by liquid chromatography. • Formula I Form III: Samples of Formula I Form […] and sealed. The sealed container was then placed into a chamber at about 40° C. and the purity was periodically monitored by liquid chromatography. • Formula I Form IV: Samples of Formula I Form IV were packaged at about 0% RH inside a PE bag and heat-sealed inside a foil pouch. The pouches were then placed in a chamber at about 40° C. and the purity was periodically monitored by liquid chromatography.

[2] = Dynamic vapor sorption (DVS) hygroscopicity; assay type: physicochemical; details: 25° C.
Procedure: Hygroscopicity was studied using dynamic vapor sorption (DVS, TA Q5000 SA, TA Instruments, New Castle, DE or DVS, DVS Intrinsic, Surface Measurement Systems, London, UK). A sample (2-20 mg) was placed in an aluminum DVS pan and loaded on the sample side of the twin pan balance. The water sorption and desorption were studied as a function of relative humidity (RH) at 25° C. In 10% RH increments, the relative humidity was increased from 5% RH to 95% RH and then decreased back to 5% (some cases from 0 to 90% RH and then decrease back to 0%). […] Data analysis was performed using Universal Analysis 2000 Version 4.7A (TA Instruments, New Castle, DE) for TA DVS runs and Microsoft Excel for SMS DVS runs.

SMILES: Cn1ccc2c([C@@H](c3cn(C45CC(C4)C5)nn3)N(C(=O)OCOP(=O)(O)O)c3cc(Cl)c4ncc(C#N)c(NCC(C)(C)C)c4c3)cccc2c1=O [Formula I Amorphous]
Formula I Purity Over Time (% purity) ([1]; About 22° C., open to atmosphere, 0 days): 95.74 % purity | Formula I Purity Over Time (% purity) ([1]; About 22° C., open to atmosphere, 1 day): 95.45 % purity | Formula I Purity Over Time (% purity) ([1]; About 22° C., open to atmosphere, 2 days): 95.18 % purity | Formula I Purity Over Time (% purity) ([1]; About 22° C., open to atmosphere, 3 days): 95.05 % purity

SMILES: Cn1ccc2c([C@@H](c3cn(C45CC(C4)C5)nn3)N(C(=O)OCOP(=O)(O)O)c3cc(Cl)c4ncc(C#N)c(NCC(C)(C)C)c4c3)cccc2c1=O [Formula I Form III]
Formula I Purity Over Time (% purity) ([1]; About 40° C., about 27% RH, 0 days): 98.61 % purity | Formula I Purity Over Time (% purity) ([1]; About 40° C., about 27% RH, 1 day): 98.58 % purity | Formula I Purity Over Time (% purity) ([1]; About 40° C., about 27% RH, 7 days): 98.55 % purity | Formula I Purity Over Time (% purity) ([1]; About 40° C., about 27% RH, 14 days): 98.50 % purity

SMILES: Cn1ccc2c([C@@H](c3cn(C45CC(C4)C5)nn3)N(C(=O)OCOP(=O)(O)O)c3cc(Cl)c4ncc(C#N)c(NCC(C)(C)C)c4c3)cccc2c1=O [Formula I Form II]
Formula I Purity Over Time (% purity) ([1]; About 40° C., about 88% RH, 0 days): 98.78 % purity | Formula I Purity Over Time (% purity) ([1]; About 40° C., about 88% RH, 1 day): 98.67 % purity | Formula I Purity Over Time (% purity) ([1]; About 40° C., about 88% RH, 7 days): 98.64 % purity | Formula I Purity Over Time (% purity) ([1]; About 40° C., about 88% RH, 14 days): 98.59 % purity | loss of purity over time ([1]; compared to Formula I Form I or Formula I amorphous material): decreased loss of purity over time

SMILES: Cn1ccc2c([C@@H](c3cn(C45CC(C4)C5)nn3)N(C(=O)OCOP(=O)(O)O)c3cc(Cl)c4ncc(C#N)c(NCC(C)(C)C)c4c3)cccc2c1=O [Formula I Form IV]
Formula I Purity Over Time (% purity) ([1]; About 40° C., about 0% RH, 0 days): 99.49 % purity | Formula I Purity Over Time (% purity) ([1]; About 40° C., about 0% RH, 14 days): 99.44 % purity | Formula I Purity Over Time (% purity) ([1]; About 40° C., about 0% RH, 28 days): 99.43 % purity

Other lines, results leading:

Formula I Purity Over Time (% purity) ([1]; About 40° C., about 75% RH, 0 days): 99.13 % purity | Formula I Purity Over Time (% purity) ([1]; About 40° C., about 75% RH, 7 days): 98.37 % purity | Formula I Purity Over Time (% purity) ([1]; About 40° C., about 75% RH, 14 days): 97.97 % purity | Formula I Purity Over Time (% purity) ([1]; About 40° C., about 75% RH, 28 days): 96.57 % purity | DVS weight change ([2]; RH 5-95%): about 9.5 weight percent
SMILES: Cn1ccc2c([C@@H](c3cn(C45CC(C4)C5)nn3)N(C(=O)OCOP(=O)(O)O)c3cc(Cl)c4ncc(C#N)c(NCC(C)(C)C)c4c3)cccc2c1=O [Formula I Form I]

DVS weight change ([2]; 0-90% RH): about 7.5% | DVS weight change ([2]; 50-90% RH): about 2%
SMILES: Cn1ccc2c([C@@H](c3cn(C45CC(C4)C5)nn3)N(C(=O)OCOP(=O)(O)O)c3cc(Cl)c4ncc(C#N)c(NCC(C)(C)C)c4c3)cccc2c1=O [Formula I Glycolate]

DVS weight change ([2]; 10-90% RH): about 4.3% | DVS weight change ([2]; 50-90% RH): about 2.5%
SMILES: Cn1ccc2c([C@@H](c3cn(C45CC(C4)C5)nn3)N(C(=O)OCOP(=O)(O)O)c3cc(Cl)c4ncc(C#N)c(NCC(C)(C)C)c4c3)cccc2c1=O [Formula I Pyruvate Form B]

DVS weight change ([2]; 0-90% RH): about 5.5% | DVS weight change ([2]; 50-90% RH): about 2%
SMILES: Cn1ccc2c([C@@H](c3cn(C45CC(C4)C5)nn3)N(C(=O)OCOP(=O)(O)O)c3cc(Cl)c4ncc(C#N)c(NCC(C)(C)C)c4c3)cccc2c1=O [Formula I α-Ketobutyrate Form B]
